Entries after “also recorded” stand apart in the source; their conditions may differ.
Tests used:
[1] = Body weight change after subcutaneous adjuvant administration; format: in vivo, C57/BL6 mice
Description: FIG. 10: Persistent local innate immune by particulate Poly-7/8a (PP-7/8a) activation is necessary and sufficient for inducing protective CD8 T cell responses. (a-c) CpG (20 μg), R848 (62.5 nmol) or PP-7/8a^Hi (62.5 nmol) were delivered subcutaneously into both hind footpads of C57/BL6 mice. (a) Supernatant of ex vivo cultured lymph node cell suspensions (n=4) were evaluated for IL-12p40 by ELISA at serial timepoints. (b) Serum (n=3-5) was assessed for IL-12p40 by ELISA at serial timepoints. (c) Percent body weight change (n=3) following subcutaneous administration of different vaccine adjuvants. (d) A model for understanding the relationship between biodistribution and local and systemic innate immune activation. (e, f) C57/BL6 mice (n=6) received a single subcutaneous footpad injection of 50 μg of OVA formulated with adjuvant at days 0 and 14. (e) At day 25, tetramer^+ CD8 T cell responses from whole blood were evaluated by flow cytometry. (f) Mice (n=6) were challenged intravenously at day 28 with LM-OVA and bacterial burden in the spleens was evaluated on day 31. (g, h) Immunogenicity experiments were repeated using SIV Gag p41 in place of OVA.

[2] = system: serum IL-12p40 and IP-10; assay: Serum (systemic) cytokines after subcutaneous administration (ELISA); format: in vivo, C57/BL6 mice
Excerpt: FIG. 9: Morphology of the carrier and TLR-7/8a agonist density, dose and potency independently influence the magnitude and spatiotemporal characteristics of innate immune activation. (a-g) To facilitate in vivo tracking, dye-labeled Poly-7/8a (PP-7/8a^Hi, PP-7/8a^Lo, PC-7/8a^Lo) (Note PP-7/8a^Hi=10 mol % and PP-7/8a^Lo=3 mol %) and small molecule TLR-7/8a normalized for TLR-7/8a dose (12.5 nmol), and controls, were delivered subcutaneously to the left footpad of mice. […] (c-e) Draining lymph nodes (n=3) were harvested at serial timepoints and evaluated by flow cytometry. […] Total CD11c^+ DC were evaluated for (d) adjuvant uptake (% Ax488^+), (e,f) relative adjuvant uptake per cell (Ax488 MFI; note that PP-7/8a^Lo and PC-7/8a^Lo are matched for TLR-7/8a density and dose), (g) magnitude and (h) activation (CD80 co-stimulatory molecule expression). (i) IL-12p40 was measured from the supernatant of ex vivo lymph node cultures. […] At day 28, tetramer+CD8 T cell responses were evaluated from whole blood. […] (n) Total IgG antibody titers and the ratio of IgG1/IgG2c antibody endpoint titers were evaluated from sera on day 28.
FIG. 10: Persistent local innate immune by particulate Poly-7/8a (PP-7/8a) activation is necessary and sufficient for inducing protective CD8 T cell responses. […] (b) Serum (n=3-5) was assessed for IL-12p40 by ELISA at serial timepoints. […]

[3] = Particle formation and size in aqueous solution by (dynamic) light scattering; format: physicochemical; settings: 0.1 mg/mL PBS
Excerpt: FIG. 7: In vivo screening of a combinatorial library of Poly-7/8a yields structure-activity insights. (a) Lymph node (n=4) IL-12p40 induced by a combinatorial library of Poly-7/8a. (b) Influence of TLR-7/8a density on lymph node (n=6) IL-12p40 and IP-10 levels (left y-axis, line graphs) and particle size assessed by dynamic light scattering (right y-axis, bar graph). (c) Cryo-electron microscopy of selected samples is shown for illustrative purposes. […] SM=small molecule; PC=polymer coil; PP=polymer particle.
FIG. 8: Increasing density of agonists on polymers results in an increased tendency of Poly-7/8a to form particles in aqueous solutions and is associated with enhanced local innate immune activity. (b) Negative control polymers were generated using aminopyridine (AP) to account for the contribution of the aromatic amine present on the imidazoquinoline based TLR-7/8a used in this study. AP was attached to polymers either through a PEG or amphiphilic (AMPH) spacer. […] 24 h after administration, supernatant of overnight lymph node cell suspensions were assessed for IFNα (d) or IFNγ (e) by ELISA. (f-g) Lymph nodes were isolated from wild type (WT), TLR-7 knockout or Caspase 1/11 (inflammasome) knockout mice 24 h after subcutaneously administering Poly-7/8a^10%; culture supernatants were evaluated for IP-10 and IL-12 by ELISA.

[4] = molecular target: T1, hTLR7 (Homo sapiens, UniProt Q9NYK1); assay: HEK293 hTLR7 reporter cell assay (absorbance at 405 nm); format: cell-based; settings: HEK293 hTLR7 reporter cells
T1 construct: expressed in transfected cells; host or cells: HEK293
T1 sequence (Q9NYK1 27-1049): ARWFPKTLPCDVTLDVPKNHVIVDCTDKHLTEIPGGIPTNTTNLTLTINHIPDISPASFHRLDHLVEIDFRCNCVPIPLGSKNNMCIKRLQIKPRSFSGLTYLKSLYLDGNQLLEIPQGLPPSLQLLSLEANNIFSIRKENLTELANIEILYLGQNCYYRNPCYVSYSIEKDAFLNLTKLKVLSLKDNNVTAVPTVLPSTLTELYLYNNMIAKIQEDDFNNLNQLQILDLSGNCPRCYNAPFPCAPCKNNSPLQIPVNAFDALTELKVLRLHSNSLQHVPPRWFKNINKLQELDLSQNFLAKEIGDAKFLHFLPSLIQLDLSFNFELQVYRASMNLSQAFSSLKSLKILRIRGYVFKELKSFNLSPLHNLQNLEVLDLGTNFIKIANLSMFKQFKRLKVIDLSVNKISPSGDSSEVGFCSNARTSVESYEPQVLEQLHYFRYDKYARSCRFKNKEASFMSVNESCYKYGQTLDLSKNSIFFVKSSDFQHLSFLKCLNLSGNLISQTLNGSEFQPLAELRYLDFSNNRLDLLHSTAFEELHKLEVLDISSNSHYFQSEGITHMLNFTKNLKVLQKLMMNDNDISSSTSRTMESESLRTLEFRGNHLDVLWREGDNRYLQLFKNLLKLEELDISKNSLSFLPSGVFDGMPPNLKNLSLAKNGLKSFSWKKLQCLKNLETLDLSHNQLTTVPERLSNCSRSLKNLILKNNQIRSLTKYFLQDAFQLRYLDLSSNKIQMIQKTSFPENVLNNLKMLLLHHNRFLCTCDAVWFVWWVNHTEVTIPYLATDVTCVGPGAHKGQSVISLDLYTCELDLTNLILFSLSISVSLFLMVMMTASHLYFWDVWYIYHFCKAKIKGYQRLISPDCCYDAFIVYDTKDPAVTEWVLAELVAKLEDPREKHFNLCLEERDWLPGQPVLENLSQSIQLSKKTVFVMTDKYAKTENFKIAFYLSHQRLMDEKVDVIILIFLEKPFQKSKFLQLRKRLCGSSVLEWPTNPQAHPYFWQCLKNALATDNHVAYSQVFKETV
Description: FIG. 6: Combinatorial synthesis was used to generate diverse arrays of Poly-7/8a. […] The potency of these two TLR-7/8a was evaluated in vitro using HEK293 hTLR7 reporter cells; absorbance at 405 nm is proportional to TLR7 binding. (b) A combinatorial library of Poly-7/8a was generated by attaching 2 unique TLR-7/8a (SM 7/8a or SM 20×7/8a) to reactive HPMA-based copolymers at different densities (˜2,4, 8 mol %) using either a short, alkane or PEG linker. By reacting 2 unique TLR-7/8a, at 3 different densities, using 3 different linkers, there are 18 unique products that can be generated, as illustrated (c). Note that this cartoon representation is for illustrative purposes; not all Poly-7/8a represented in this schematic were evaluated in this study, nor does this schematic represent all the materials described herein.

[5] = system: CD11c+ DC; assay: DC recruitment and activation (CD80) in draining lymph nodes; format: in vivo, mice; settings: TLR-7/8a dose 12.5 nmol, subcutaneous
Excerpt: (§1) FIG. 9: Morphology of the carrier and TLR-7/8a agonist density, dose and potency independently influence the magnitude and spatiotemporal characteristics of innate immune activation. (a-g) To facilitate in vivo tracking, dye-labeled Poly-7/8a (PP-7/8a^Hi, PP-7/8a^Lo, PC-7/8a^Lo) (Note PP-7/8a^Hi=10 mol % and PP-7/8a^Lo=3 mol %) and small molecule TLR-7/8a normalized for TLR-7/8a dose (12.5 nmol), and controls, were delivered subcutaneously to the left footpad of mice. (a, b) mice (n=3) that received IR-dye labeled materials were imaged by dual modality X-ray and epifluorescence spectroscopy; (a) Representative images illustrating biodistribution over the first 2 days; (b) Kinetics of the different constructs in the popliteal lymph node. (c-e) Draining lymph nodes (n=3) were harvested at serial timepoints and evaluated by flow cytometry. […] Total CD11c^+ DC were evaluated for (d) adjuvant uptake (% Ax488^+), (e,f) relative adjuvant uptake per cell (Ax488 MFI; note that PP-7/8a^Lo and PC-7/8a^Lo are matched for TLR-7/8a density and dose), (g) magnitude and (h) activation (CD80 co-stimulatory molecule expression). (i) IL-12p40 was measured from the supernatant of ex vivo lymph node cultures. […] At day 28, tetramer+CD8 T cell responses were evaluated from whole blood. […] (n) Total IgG antibody titers and the ratio of IgG1/IgG2c antibody endpoint titers were evaluated from sera on day 28.

[6] = Biodistribution and kinetics of dye-labeled materials after subcutaneous administration (X-ray and epifluorescence imaging); format: in vivo, mice
Excerpt: as §1

[7] = system: Th1 CD4 T cells; assay: MML immunization, antigen-specific Th1 cytokine producing CD4 T cells in splenocytes; format: in vivo, C57/BL6 mice; settings: 20 μg MML, days 0, 21 and 42
Description: FIG. 11: Particulate Poly-7/8a induce Th1 CD4 T cells that mediate protection against Leishmania major. C57/BL6 mice received subcutaneous immunizations of 20 μg of MML protein either alone, or formulated with an adjuvant, on days 0, 21 and 42. (a) Splenocytes were isolated on day 70 and stimulated in vitro with MML peptide pool. Antigen-specific cytokine producing CD4 T cells in the mixed splenocyte cultures were quantified by flow cytometry (n=5) for their capacity to produce Th1 characteristic cytokines (IFNγ, IL-2 and TNFα). (b) Mice (n=6) were challenged intradermally in both ears with L major at day 70. Ear lesion diameters were measured for 12 weeks.

CCOCc1nc2c(N)nc3ccccc3c2n1CC(C)(C)O [R848]
mouse body weight [1]: transient decreases in mouse body weight | systemic (sera) cytokines ([2]; CpG 20 μg, R848 62.5 nmol, PP-7/8a^Hi 62.5 nmol, subcutaneous): only induced systemic (sera) cytokines; also recorded: high levels of transient systemic cytokine production

p[(HPMA)-co-(Ma-β-Ala-PEG-Pam2Cys)] [Poly-PEG-Pam2Cys]
z-average diameter [3]: 2,744±384.8 nm

CCCCc1nc2c(N)nc3ccccc3c2n1Cc1ccc(CN)cc1 [SM 20×7/8a, 1-(4-(aminomethyl)benzyl)-2-butyl-1H-imidazo[4,5-c]quinolin-4-amine]
potency relative to SM 7/8a [4]: ~20 fold

CCOCc1nc2c(N)nc3ccccc3c2n1CCCCN [SM 7/8a, 1-(4-aminobutyl)-2-(ethoxymethyl)-1H-imidazo[4,5-c]quinolin-4-amine]
DC recruitment, activation and cytokine production in draining lymph nodes [5]: limited lymph node responses | time after which undetectable [6]: ≤ 1 days | biodistribution / retention ([6]; normalized for TLR-7/8a dose): distributed systemically | Th1-type CD4 cell responses [7]: equivalent to MML administered alone | serum cytokines ([2]; TLR-7/8a dose 12.5 nmol, local (subcutaneous) administration): high levels of serum cytokines

Source: patent US20250090658A1, “POLYMER ADJUVANT” (Oxford University Innovation Limited, priority 2014, published 2025)
